Laboratory results published in patent publication US20070225255A1, “Use of Mitochondrially Targeted Antioxidant in the Treatment of Liver Diseases and Epithelial Cancers” (priority 2004, published 2007).

Tested on: hemoxygenase 1 (HO-1)
Assay: Western blot of hemoxygenase 1 in liver extracts of DDC intoxicated mice
Format: in vivo, mouse
Conditions: DDC 3 days, daily i.p. MitoQ in PBS/1% DMSO (112 nmol/kg), versus DDC intoxicated mice
Procedure: To evaluate hemoxygenase 1 (HO-1) protein expression know to be induced by oxidative stress (Suematsu M. and Ishimura Y., 2000, Hepatology, 31(1): 3-6) standard western blot analysis is performed using protein extracts derived from DDC intoxicated mice treated simultaneously for 3 days with MitoQ (diluted in 1% DMSO in PBS) or just vehicle itself (see protocols in Example 3).
Liver tissues are resuspended in ice-cold RIPA-buffer (50 mM Tris-HCl pH 7.4, 250 mM NaCl, 0.1% SDS, 1% deoxycholate, 1% NP-40) supplemented with 2 μg/ml leupeptin, 2 μg/ml pepstatin, 2 μg/ml aprotinin, 1 mM phenylmethylsulfonylfluoride (PMSF), and 2 mM dithiothreitol followed by homogenization through sonication (2 bursts of 5 seconds) on ice. After incubation for 20 minutes on ice, the lysates are cleared by two centrifugational steps in a microcentrifuge at 13 000 rpm for 15 minutes at 4° C. and the supernatants are collected. Protein concentrations are determined by the Bradford assay (Biorad) using bovine serum albumin as a standard. […] The intensities of the bands can be analysed densitometrically using ChemiImager 5500 software (Alpha Innotech) and each signal normalised to the intensity of the corresponding HO-2 (showing 7 fold reduction of HO-1 upon MitoQ treatment when compared to DDC intoxicated group of animals), or alternatively to β-actin.

MitoQ
reduction of HO-1 protein expression normalised to HO-2: 7 fold
